Laboratory results: patent US20260274814A1, “THIENYL COMPOUNDS FOR THE TREATMENT OF A CENTRAL NERVOUS SYSTEM DISEASE OR DISORDER” (Coreterra Therapeutics, Inc., priority 2023, published 2026)
Structures can show the parent of a compound that is named as a salt.

Test system: mice
Experiment: Neuropharmacological Assay (SmartCube): automated behavioral signature of compound-treated mice compared with a database of reference drug classes
Type: in vivo
Details: for minimal effective dose: Mus musculus, ip, read-out: MED; for minimal effective dose / MED: minimal effective dose: dose having 45% or more total activity in SmartCube, i.p., if only one dose tested, that dose is shown; for AG / AN / AP / HL / MS / PS / UK / AD / AX / CE / SH: SmartCube class probability, 3.0 mg/kg i.p., 15 min before test
Outline: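 Dose-response work typically spanned 0.3–10 mpk, widened or narrowed to obtain a full curve, with i.p. administration 15 min pre-test. MED is defined as the dose producing ≥45% total SmartCube activity; single-dose entries list the tested dose.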

| Structure (SMILES) | minimal effective dose [mg/kg] | AG | AN | AP | HL | MS | PS | AD (hydrochloride, 3 mg/kg) | MED [mpk] | AD | AX | CE | SH | UK (hydrochloride, 3 mg/kg) | other results |
| --- | --- | --- | --- | --- | --- | --- | --- | --- | --- | --- | --- | --- | --- | --- | --- |
| NC1CCc2sccc2C1 (single isomer, unassigned) [Compound 212, 4,5,6,7-tetrahydrobenzothiophen-5-amine hydrochloride] | 1 | ND (^ <4%) | ND (^ <4%) | + (≥4%) | ND (^ <4%) | ND (^ <4%) | ND (^ <4%) | +++ (≥49%) |  |  |  |  |  |  | UK: ND (^ <4%); AX (hydrochloride, 3 mg/kg): + (≥4%); CE (hydrochloride, 3 mg/kg): + (≥4%); SH (hydrochloride, 3 mg/kg): ND (^ <4%) |
| NC1CCc2sccc2C1 (single isomer, unassigned) [Compound 213, 4,5,6,7-tetrahydrobenzothiophen-5-amine hydrochloride] |  | ND (^ <4%) | ND (^ <4%) | + (≥4%) | ND (^ <4%) | ND (^ <4%) | ND (^ <4%) | + (≥4%) | 1 |  |  |  |  |  | UK: ND (^ <4%); AX (hydrochloride, 3 mg/kg): +++ (≥49%); CE (hydrochloride, 3 mg/kg): ND (^ <4%); SH (hydrochloride, 3 mg/kg): + (≥4%) |
| CNC1CCc2sc(C)cc2C1 (single isomer, unassigned) [Compound 223, N, 2-dimethyl-4,5,6,7-tetrahydrobenzothiophen-5-amine hydrochloride] | > 3 | ND (^ <4%) | ND (^ <4%) |  | ND (^ <4%) | ND (^ <4%) | ND (^ <4%) |  |  | ND (^ <4%) | ND (^ <4%) | ND (^ <4%) | ND (^ <4%) | ++ (≥24%) | AP (hydrochloride, 3 mg/kg): ND (^ <4%) |
| CNC1CCc2sc(C)cc2C1 (single isomer, unassigned) [Compound 224, N, 2-dimethyl-4,5,6,7-tetrahydrobenzothiophen-5-amine hydrochloride] |  | ND (^ <4%) | ND (^ <4%) |  | ND (^ <4%) | ND (^ <4%) | ND (^ <4%) |  |  | ND (^ <4%) | ND (^ <4%) | ND (^ <4%) | ND (^ <4%) | ND (^ <4%) | AP (hydrochloride, 3 mg/kg): ++++ (≥74%); MED (hydrochloride): 3 mpk |
| CNC1CCc2c(C(F)(F)F)csc2C1 (single isomer, unassigned) [Compound 230, N-methyl-3-(trifluoromethyl)-4,5,6,7-tetrahydrobenzothiophen-6-amine hydrochloride] | 3 | ND (^ <4%) | ND (^ <4%) | ND (^ <4%) | ND (^ <4%) | ND (^ <4%) | ND (^ <4%) | + (≥4%) |  |  | ND (^ <4%) | ND (^ <4%) | ND (^ <4%) | ND (^ <4%) |  |
| CNC1CCc2c(C(F)(F)F)csc2C1 (single isomer, unassigned) [Compound 231, N-methyl-3-(trifluoromethyl)-4,5,6,7-tetrahydrobenzothiophen-6-amine hydrochloride] |  | ND (^ <4%) | ND (^ <4%) | ND (^ <4%) | ND (^ <4%) | ND (^ <4%) | ND (^ <4%) | ND (^ <4%) | 3 |  | ND (^ <4%) | ND (^ <4%) | ND (^ <4%) | +++ (≥49%) |  |
| CNC1CCc2scc(-c3ccccc3)c2C1 (single isomer, unassigned) [Compound 232, N-methyl-3-phenyl-4,5,6,7-tetrahydrobenzothiophen-5-amine hydrochloride] | > 3 | ND (^ <4%) | ND (^ <4%) | ND (^ <4%) | ND (^ <4%) | ND (^ <4%) | ND (^ <4%) |  |  | ND (^ <4%) | ND (^ <4%) | ND (^ <4%) | ND (^ <4%) | + (≥4%) |  |
| CNC1CCc2scc(-c3ccccc3)c2C1 (single isomer, unassigned) [Compound 233, N-methyl-3-phenyl-4,5,6,7-tetrahydrobenzothiophen-5-amine hydrochloride] |  | ND (^ <4%) | ND (^ <4%) | ND (^ <4%) | ND (^ <4%) | ND (^ <4%) | ND (^ <4%) |  | >3 | ND (^ <4%) | ND (^ <4%) | ND (^ <4%) | ND (^ <4%) | ND (^ <4%) |  |
| CNC1CCc2scc(CN)c2C1 (single isomer, unassigned) [Compound 236, 3-(aminomethyl)-N-methyl-4,5,6,7-tetrahydrobenzothiophen-5-amine dihydrochloride] | > 3 | ND (^ <4%) | ND (^ <4%) | ND (^ <4%) | ND (^ <4%) | ND (^ <4%) | ND (^ <4%) |  |  | ND (^ <4%) | ND (^ <4%) | ND (^ <4%) | ND (^ <4%) |  | UK (dihydrochloride, 3 mg/kg): ND (^ <4%) |
| CNC1CCc2scc(CN)c2C1 (single isomer, unassigned) [Compound 237, 3-(aminomethyl)-N-methyl-4,5,6,7-tetrahydrobenzothiophen-5-amine dihydrochloride] |  | ND (^ <4%) | ND (^ <4%) | ND (^ <4%) | ND (^ <4%) | ND (^ <4%) | ND (^ <4%) |  | >3 | ND (^ <4%) | ND (^ <4%) | ND (^ <4%) | ND (^ <4%) |  | UK (dihydrochloride, 3 mg/kg): + (≥4%) |
| CC1(N)CCc2c(C(F)(F)F)csc2C1.Cl (single isomer, unassigned) [Compound 241, 6-methyl-3-(trifluoromethyl)-5,7-dihydro-4H-benzothiophen-6-amine hydrochloride] | 3 | ND (^ <4%) | ND (^ <4%) | ND (^ <4%) | ND (^ <4%) | ND (^ <4%) | ND (^ <4%) | + (≥4%) |  |  | ND (^ <4%) | ND (^ <4%) | ND (^ <4%) | ++++ (≥74%) |  |
| CC1(N)CCc2c(C(F)(F)F)csc2C1.Cl (single isomer, unassigned) [Compound 242, 6-methyl-3-(trifluoromethyl)-5,7-dihydro-4H-benzothiophen-6-amine hydrochloride] |  | ND (^ <4%) | ND (^ <4%) | ND (^ <4%) | ND (^ <4%) | ND (^ <4%) | ND (^ <4%) | +++ (≥49%) | 3 |  | ND (^ <4%) | ND (^ <4%) | ND (^ <4%) | ND (^ <4%) |  |
